Legend:
[1] = system: Lettuce (the cultivar: Souther); experiment: Experiment 1: lettuce growth, total dry weight after bottom watering; format: in vivo; details: compositions with 15 mass % GSSG, 10 mass % ALN, 5 mass % ferrous material, 15 mass % seaweed extract; diluted 1000-fold, bottom watering 3 and 4 weeks after seeding
Description: Lettuce (the cultivar: Souther) was raised in a plant incubator. Three weeks after the seeding and four weeks after the seeding, a composition comprising 15 mass % oxidized glutathione (GSSG), 10 mass % allantoin (ALN), 5 mass % ferrous material, or 15 mass % seaweed extract, or a composition comprising a combination of 15 mass % GSSG and any of 10 mass % ALN, 5 mass % ferrous material, or 15 mass % seaweed extract was applied to the lettuce. Each composition was diluted 1000-fold, and each resulting solution was applied by bottom watering.
Four weeks after the seeding, the seedling was transplanted into a pot, grown in a glass greenhouse for two weeks, and then, evaluated (repeated 9 times).
Assuming that the value of the total dry weight of the lettuce to which water alone was applied was 100, the total dry weight of the lettuce to which each composition was applied was expressed.

[2] = system: Lettuce (the cultivar: Souther); experiment: Experiment 2: lettuce growth under high-temperature stress, total dry weight; format: in vivo; details: diluted 1000-fold, bottom watering, 40° C. for two hours
Description: Lettuce (the cultivar: Souther) was raised in a plant incubator. Three weeks after the seeding and four weeks after the seeding, a fertilizer composition comprising 5 mass % GSSG, 10 mass % ALN, or 20 mass % ALN, a fertilizer composition comprising neither GSSG nor ALN, or a fertilizer composition comprising a combination of 5 mass % GSSG and each concentration of ALN was applied. Each fertilizer composition was diluted 1000-fold, and the resulting solution was applied by bottom watering.
Four weeks after the seeding, the seedling was transplanted into a pot, subjected to high-temperature stress at 40° C. for two hours in a plant incubator, and grown for one week. Then, the seedling was transferred into a glass greenhouse, grown for one week, and then, evaluated (repeated 9 times).
Assuming that the value of the total dry weight of the lettuce to which the fertilizer composition comprising neither GSSG nor ALN was applied alone was 100, the total dry weight of the lettuce to which each composition was applied was expressed.

grape VR cell = experiment: Experiment 9: cumulative amount of anthocyanin in cultured grape VR cell; format: cell-based; details: GSSG 0.1%, ALN 0.4%; 10 μL at start and 100 μL on 3rd day; measured on 11th day of culture
Description: A grape VR cell was cultured in an LS agar culture medium, and the cumulative amount of anthocyanin was measured. The solution for each treatment section as shown in Table 4 was delivered into the cell cluster by drops in an amount of 10 μL at the beginning of the culture, and in an amount of 100 μL on the 3rd day of culture. The amount of anthocyanin was measured on the 11th day of culture. The culture was performed at 27° C. under light irradiation.

[3] = system: lettuce (the cultivar: Lollo Rosso or Red Oak); experiment: Experiment 10: visual evaluation of lettuce coloration after leaf spraying; format: in vivo; set-up: key: The same degree of coloration as T1 was rated CC; slightly more coloration than T1 was rated BB; much more coloration than T1 was rated AA; details: GSSG 0.125%, ALN 0.5%; sprayed on leaves approximately 1 g/head; one week after spraying; compared with T1
Description: Culture soil was put in a 9 cm plastic pot, and seeded with lettuce (the cultivar: Lollo Rosso or Red Oak). After the seeding, the lettuce was grown in an environmentally controlled greenhouse set at 28° C. during the daytime and at 18° C. during the nighttime. Three weeks after the seeding, each test solution shown in Table 5 was sprayed on the leaves at approximately 1 g/head. One week after the spraying, the appearance of the lettuce was visually observed, and the degree of coloration was evaluated. The evaluation was based on a comparison with T1 (the control). The same degree of coloration as T1 was rated CC, slightly more coloration than T1 was rated BB, and much more coloration than T1 was rated AA.

Compound | total dry weight of the lettuce (water alone = 100) [1] | total dry weight of the lettuce (fertilizer composition with neither GSSG nor ALN = 100) ([2]; ALN 10%, GSSG 0% or 5%) | total dry weight of the lettuce (fertilizer composition with neither GSSG nor ALN = 100) ([2]; ALN 20%, GSSG 0% or 5%) | cumulative amount of anthocyanin (grape VR cell) | degree of coloration, Lollo Rosso [3] | degree of coloration, Red Oak [3] | total dry weight of the lettuce (fertilizer composition with neither GSSG nor ALN = 100) ([2]; ALN 0%, GSSG 5 mass %)
NC(=O)NC1NC(=O)NC1=O (stereo not drawn) [ALN, 5-ureidohydantoin] | 123 | 104 | 115 | neither GSSG alone nor ALN alone affected | BB | BB | –
[Fe+2] [Ferrous iron] | 98 | – | – | – | – | – | –
oxidized glutathione [GSSG] | 113 | – | – | neither GSSG alone nor ALN alone affected | CC | BB | 108

— US20240423208A1, “AGRICULTURAL COMPOSITION AND METHOD FOR CULTIVATING PLANTS USING SAME” (KANEKA CORPORATION, priority 2022, published 2024)
